The source of these data is PMC11335392, “Characterization of an Estrogen Receptor α-Selective ^18 F-Estradiol PET Tracer” (World Journal of Nuclear Medicine, 2024).

pKd: −log10 of the molar value.

This assay addresses T1, estrogen receptor α (ERα) (Homo sapiens, UniProt P03372).
T1 construct: gene ESR1; full-length human ESR1 (ERα), transiently expressed in HEK293T cells
T1 sequence (P03372 1-595): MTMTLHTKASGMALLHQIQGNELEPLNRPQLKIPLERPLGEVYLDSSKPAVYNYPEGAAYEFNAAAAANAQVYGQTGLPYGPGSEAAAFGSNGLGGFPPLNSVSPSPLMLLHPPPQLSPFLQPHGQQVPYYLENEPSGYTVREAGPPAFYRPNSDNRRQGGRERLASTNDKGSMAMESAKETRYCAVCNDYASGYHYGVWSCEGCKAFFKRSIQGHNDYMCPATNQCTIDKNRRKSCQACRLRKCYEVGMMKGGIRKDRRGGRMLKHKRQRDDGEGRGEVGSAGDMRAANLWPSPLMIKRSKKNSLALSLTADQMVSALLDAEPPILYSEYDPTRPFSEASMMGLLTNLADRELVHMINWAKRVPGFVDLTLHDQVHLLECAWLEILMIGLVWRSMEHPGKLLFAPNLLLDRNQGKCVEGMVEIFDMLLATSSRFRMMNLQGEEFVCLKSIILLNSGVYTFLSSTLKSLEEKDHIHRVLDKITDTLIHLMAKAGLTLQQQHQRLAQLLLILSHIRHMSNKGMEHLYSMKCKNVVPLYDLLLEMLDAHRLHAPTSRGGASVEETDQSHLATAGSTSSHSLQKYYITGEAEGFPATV
Description: radioligand saturation binding with Scatchard analysis in ERα-transfected HEK293T cells. It counts as cell-based.

As a reminder, the pKd is −log10 of the Kd, conventionally taken in molar units. On to `C[C@]12CC[C@@H]3c4ccc(O)cc4CC[C@H]3[C@@H]1C[C@@H](F)[C@@H]2O` [[18F]FES, 16α-[18F]fluoro-17β-estradiol], for which the pKd is 7.03.
